Results from PMC9506414, “Novel 2,6,9-Trisubstituted Purines as Potent CDK Inhibitors Alleviating Trastuzumab-Resistance of HER2-Positive Breast Cancers” (Pharmaceuticals, 2022).
Read-outs that look alike come from different tables or passages of the source.

Assays:
[1] = test system: SK-Br3 cells; assay: Antiproliferation assay (Cell-titer Glo, 72 h); type: cell-based; details: Homo sapiens, SK-BR-3; 72 h; means and standard deviations from three independent assays; read-out: SK-Br3 (GI50/μM)
Experimental: (§1) Breast-cancer cell lines (SK-Br3, HCC-1954) were purchased from Korea Cell Line Bank (Seoul, Korea) and were cultured in RPMI medium supplemented with 10% FBS and penicillin/streptomycin (Welgene, Seoul, Korea). All cell lines were maintained at 37 °C in a cell incubator in the presence of 5% CO2.
(§2) Breast-cancer cells in culture media (100 μL volume/well, 5000 SK-Br3 cells/well, 1000 HCC-1954 cells/well) were seeded in tissue culture-treated 96-well plates, and incubated at a cell incubator for 24 h. Serially diluted compounds (3-fold, 10 point from 10 mM, duplicated) were pre-plated and 500 nL of compound solutions were pin-transferred to the cells in the assay plates using pintool system (JANUS liquid handler, PerkinElmer, Waltham, MA, USA) and incubated at a cell incubator for 72 h. Cell-titer Glo^TM reagent (50 μL, Promega Corp., Madison, WI, USA) was added to each well, and the luminescence signal was read using an Envision^TM plate reader (PerkinElmer, Waltham, MA, USA). The titration curve fitting and IC50 values were generated using Prism 7.0 s/w (GraphPad, San Diego, CA, USA).

[2] = test system: HCC1954 cells; assay: Antiproliferation assay (Cell-titer Glo, 72 h); type: cell-based; details: Homo sapiens, 72 h, means and standard deviations from three independent assays, read-out: HCC1954 (GI50/μM)
Experimental: as §1, §2

[3] = target: CDK12/CyclinK (Homo sapiens, UniProt Q9NYV4); assay: In vitro CDK12/cyclinK kinase assay; type: biochemical; design: purchased Reaction Biology Corp. (CRO that ran the assay)
Experimental: In vitro CDK12/cyclinK assays for all compounds and in vitro kinome-wide inhibition profiling of 30d at 10 μM were performed by a CRO company (Reaction Biology Corp., San Diego, CA, USA).

[4] = Tables 1-4, read-out: CDK12/CyclinK (IC50/μM)

Sequence of CDK12/CyclinK (Q9NYV4 whole entry): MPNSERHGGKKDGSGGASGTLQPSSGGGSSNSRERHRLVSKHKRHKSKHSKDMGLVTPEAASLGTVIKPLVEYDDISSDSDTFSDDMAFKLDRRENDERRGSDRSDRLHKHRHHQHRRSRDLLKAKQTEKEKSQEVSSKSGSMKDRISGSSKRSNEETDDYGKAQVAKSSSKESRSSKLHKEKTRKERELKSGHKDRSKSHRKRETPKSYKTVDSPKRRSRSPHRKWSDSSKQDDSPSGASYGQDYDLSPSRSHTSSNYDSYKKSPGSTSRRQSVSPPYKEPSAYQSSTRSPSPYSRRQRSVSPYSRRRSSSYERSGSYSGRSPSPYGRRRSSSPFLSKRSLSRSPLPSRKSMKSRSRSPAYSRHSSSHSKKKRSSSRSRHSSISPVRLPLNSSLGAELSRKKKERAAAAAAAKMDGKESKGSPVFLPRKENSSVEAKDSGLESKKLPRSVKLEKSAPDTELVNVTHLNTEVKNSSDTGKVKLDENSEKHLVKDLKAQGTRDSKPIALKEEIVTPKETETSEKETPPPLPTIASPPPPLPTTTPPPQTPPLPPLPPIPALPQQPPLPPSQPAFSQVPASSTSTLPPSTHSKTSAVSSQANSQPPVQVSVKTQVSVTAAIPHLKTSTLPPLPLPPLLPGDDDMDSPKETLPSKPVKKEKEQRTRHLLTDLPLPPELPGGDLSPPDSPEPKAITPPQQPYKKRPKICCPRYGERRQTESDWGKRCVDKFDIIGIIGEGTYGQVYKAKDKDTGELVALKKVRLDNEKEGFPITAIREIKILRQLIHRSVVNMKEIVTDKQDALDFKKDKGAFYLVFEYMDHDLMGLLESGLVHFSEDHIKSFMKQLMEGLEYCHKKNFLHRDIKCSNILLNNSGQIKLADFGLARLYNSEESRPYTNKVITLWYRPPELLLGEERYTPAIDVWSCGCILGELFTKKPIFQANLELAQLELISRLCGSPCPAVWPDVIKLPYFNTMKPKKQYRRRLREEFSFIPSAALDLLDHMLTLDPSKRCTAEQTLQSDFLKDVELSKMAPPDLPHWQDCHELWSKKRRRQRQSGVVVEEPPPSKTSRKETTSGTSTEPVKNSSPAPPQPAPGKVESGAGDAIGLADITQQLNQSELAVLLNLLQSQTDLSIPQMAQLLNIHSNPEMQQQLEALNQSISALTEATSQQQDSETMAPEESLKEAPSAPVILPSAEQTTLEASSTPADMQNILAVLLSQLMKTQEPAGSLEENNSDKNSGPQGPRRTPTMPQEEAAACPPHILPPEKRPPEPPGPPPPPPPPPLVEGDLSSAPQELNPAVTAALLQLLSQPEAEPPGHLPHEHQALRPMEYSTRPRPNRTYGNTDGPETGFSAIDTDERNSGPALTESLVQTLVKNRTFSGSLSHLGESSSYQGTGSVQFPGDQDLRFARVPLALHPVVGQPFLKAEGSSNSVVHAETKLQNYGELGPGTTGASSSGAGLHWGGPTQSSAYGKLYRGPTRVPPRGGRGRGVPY
Sequence of CDK12/CyclinK (O75909 whole entry partner): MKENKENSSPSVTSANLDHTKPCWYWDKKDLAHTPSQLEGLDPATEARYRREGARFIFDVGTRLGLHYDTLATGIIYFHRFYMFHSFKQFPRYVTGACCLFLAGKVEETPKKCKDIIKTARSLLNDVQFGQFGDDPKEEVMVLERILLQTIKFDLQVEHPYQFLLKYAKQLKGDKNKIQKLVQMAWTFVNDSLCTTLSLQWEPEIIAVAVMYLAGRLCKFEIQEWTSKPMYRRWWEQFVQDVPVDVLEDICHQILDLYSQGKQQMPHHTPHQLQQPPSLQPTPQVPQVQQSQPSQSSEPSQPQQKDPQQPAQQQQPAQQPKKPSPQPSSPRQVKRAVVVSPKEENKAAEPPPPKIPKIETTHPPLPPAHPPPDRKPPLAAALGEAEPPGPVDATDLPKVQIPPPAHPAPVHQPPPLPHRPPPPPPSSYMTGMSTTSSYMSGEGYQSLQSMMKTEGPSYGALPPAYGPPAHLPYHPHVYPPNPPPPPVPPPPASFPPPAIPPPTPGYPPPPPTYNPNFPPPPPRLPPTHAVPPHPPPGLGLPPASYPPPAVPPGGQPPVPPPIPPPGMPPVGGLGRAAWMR

Structure (SMILES)	GI50 [1] [µM]	GI50 [2] [µM]	IC50 ([3]; Table 5, means and standard deviations from three independent assays, read-out: CDK12/CyclinK (IC50/μM)) [µM]	IC50 [3, 4] [µM]	IC50 ([3]; read-out: CDK12/cyclinK IC50) [µM]
CC(C)n1cnc2c(NCc3nc4ccc(F)c(F)c4[nH]3)nc(N3CCCC[C@H]3CCO)nc21 [Compound 2, reference compound]	0.094 ± 0.012	0.069 ± 0.006	0.0086 ± 0.0017	–	–
Cc1ccc(-c2ccc(CNc3nc(-c4cccnc4)nc4c3ncn4C(C)C)nc2)cn1 [Compound 17c, 9-Isopropyl-N-((6′-methyl-[3,3′-bipyridin]-6-yl)methyl)-2-(pyridin-3-yl)-9H-purin-6-amine]	24.6 ± 4.99	13.6 ± 1.16	–	1.11	–
CC(C)n1cnc2c(NCc3ccc(-c4cccnc4)nc3)nc(-c3cccnc3)nc21 [Compound 17f, N-([2,3′-Bipyridin]-5-ylmethyl)-9-isopropyl-2-(pyridin-3-yl)-9H-purin-6-amine]	0.41 ± 0.034	0.247 ± 0.03	–	0.221	–
CC(C)n1cnc2c(NCc3ccc(-c4ccncc4)nc3)nc(-c3cccnc3)nc21 [Compound 17g, N-([2,4′-Bipyridin]-5-ylmethyl)-9-isopropyl-2-(pyridin-3-yl)-9H-purin-6-amine]	0.804 ± 0.095	0.494 ± 0.048	–	0.153	–
CC(C)n1cnc2c(NCc3ccc(-c4cccnc4)nc3)nc(-c3ccccc3)nc21 [Compound 18a, N-([2,3′-Bipyridin]-5-ylmethyl)-9-isopropyl-2-phenyl-9H-purin-6-amine]	1.69 ± 0.243	1.12 ± 0.26	–	0.623	–
CC(C)n1cnc2c(NCc3ccc(-c4cccnc4)nc3)nc(-c3cccc(C(N)=O)c3)nc21 [Compound 18b, 3-(6-(([2,3′-Bipyridin]-5-ylmethyl)amino)-9-isopropyl-9H-purin-2-yl)benzamide]	1.62 ± 0.248	1.14 ± 0.304	–	0.504	–
CC(C)n1cnc2c(NCc3ccc(-c4cccnc4)nc3)nc(-c3ccc(C(N)=O)cc3)nc21 [Compound 18c, 4-(6-(([2,3′-Bipyridin]-5-ylmethyl)amino)-9-isopropyl-9H-purin-2-yl)benzamide]	3.71 ± 0.45	3.14 ± 0.201	–	0.484	–
CC(C)n1cnc2c(NCc3ccc(-c4cccnc4)nc3)nc(-c3ccc4[nH]ccc4c3)nc21 [Compound 18d, N-([2,3′-Bipyridin]-5-ylmethyl)-2-(1H-indol-5-yl)-9-isopropyl-9H-purin-6-amine]	1.5 ± 0.112	1.35 ± 0.243	–	0.155	–
CC(C)n1cnc2c(NCc3ccc(-c4cccnc4)nc3)nc(-c3ccc4cn[nH]c4c3)nc21 [Compound 18e, N-([2,3′-Bipyridin]-5-ylmethyl)-2-(1H-indazol-6-yl)-9-isopropyl-9H-purin-6-amine]	0.608 ± 0.115	0.399 ± 0.051	–	0.179	–
CC(C)n1cnc2c(NCc3ccc(-c4cccnc4)nc3)nc(-c3ccc4[nH]ncc4c3)nc21 [Compound 18f, N-([2,3′-Bipyridin]-5-ylmethyl)-2-(1H-indazol-5-yl)-9-isopropyl-9H-purin-6-amine]	2.58 ± 0.167	1.86 ± 0.148	–	0.104	–
CC(C)n1cnc2c(NCc3ccc(-c4cccnc4)nc3)nc(-c3cnc4ccccc4c3)nc21 [Compound 18g, N-([2,3′-Bipyridin]-5-ylmethyl)-9-isopropyl-2-(quinolin-3-yl)-9H-purin-6-amine]	3.71 ± 0.557	4.23 ± 0.214	–	0.486	–
Cc1ccc(-c2nc(NCc3ccc(-c4cccnc4)nc3)c3ncn(C(C)C)c3n2)cn1 [Compound 18h, N-([2,3′-Bipyridin]-5-ylmethyl)-9-isopropyl-2-(6-methylpyridin-3-yl)-9H-purin-6-amine]	1.27 ± 0.33	0.942 ± 0.125	–	0.09	–
CC(C)n1cnc2c(NCc3ccc(-c4cccnc4)nc3)nc(-c3ccc(N)nc3)nc21 [Compound 18i, N-([2,3′-Bipyridin]-5-ylmethyl)-2-(6-aminopyridin-3-yl)-9-isopropyl-9H-purin-6-amine]	0.376 ± 0.067	0.278 ± 0.007	–	0.065	< 0.1
CC(C)n1cnc2c(NCc3ccc(-c4cccnc4)nc3)nc(-c3ccnc(N)c3)nc21 [Compound 18j, N-([2,3′-Bipyridin]-5-ylmethyl)-2-(2-aminopyridin-4-yl)-9-isopropyl-9H-purin-6-amine]	0.71 ± 0.024	0.354 ± 0.06	–	0.094	< 0.1
CC(C)n1cnc2c(NCc3ccc(-c4cccnc4)nc3)nc(-c3cncnc3)nc21 [Compound 18k, N-([2,3′-Bipyridin]-5-ylmethyl)-9-isopropyl-2-(pyrimidin-5-yl)-9H-purin-6-amine]	0.318 ± 0.149	0.31 ± 0.041	–	0.051	< 0.1
CC(C)n1cnc2c(NCc3ccc(-c4cccnc4)nc3)nc(-c3cnc(N)nc3)nc21 [Compound 18l, N-([2,3′-Bipyridin]-5-ylmethyl)-2-(2-aminopyrimidin-5-yl)-9-isopropyl-9H-purin-6-amine]	0.242 ± 0.042	0.162 ± 0.011	–	0.087	< 0.1
CC(C)n1cnc2c(NCc3ccc(-c4cccnc4)nc3)nc(-c3ccn[nH]3)nc21 [Compound 18m, N-([2,3′-Bipyridin]-5-ylmethyl)-9-isopropyl-2-(1H-pyrazol-5-yl)-9H-purin-6-amine]	1.72 ± 0.336	1.13 ± 0.05	–	0.501	–
CC(C)n1cnc2c(NCc3ccc(-c4cccnc4)nc3)nc(-c3cn[nH]c3)nc21 [Compound 18n, N-([2,3′-Bipyridin]-5-ylmethyl)-9-isopropyl-2-(1H-pyrazol-4-yl)-9H-purin-6-amine]	1.99 ± 0.12	1.17 ± 0.027	–	1.43	–
CC(C)n1cnc2c(NCc3ccc(-c4cccnc4)nc3)nc(-c3ccccc3N)nc21 [Compound 19a, N-([2,3′-Bipyridin]-5-ylmethyl)-2-(2-aminophenyl)-9-isopropyl-9H-purin-6-amine]	2.61 ± 0.899	2.63 ± 0.448	–	0.619	–
CC(C)n1cnc2c(NCc3ccc(-c4cccnc4)nc3)nc(-c3cccc(N)c3)nc21 [Compound 19b, N-([2,3′-Bipyridin]-5-ylmethyl)-2-(3-aminophenyl)-9-isopropyl-9H-purin-6-amine]	0.614 ± 0.055	0.341 ± 0.059	–	0.17	–
CC(C)n1cnc2c(NCc3ccc(-c4cccnc4)nc3)nc(-c3ccc(N)cc3)nc21 [Compound 19c, N-([2,3′-Bipyridin]-5-ylmethyl)-2-(4-aminophenyl)-9-isopropyl-9H-purin-6-amine]	0.795 ± 0.063	0.497 ± 0.088	–	0.15	–
CC(C)n1cnc2c(NCc3ccc(-c4cccnc4)nc3)nc(-c3ccccc3NCCO)nc21 [Compound 20a, 2-((2-(6-(([2,3′-Bipyridin]-5-ylmethyl)amino)-9-isopropyl-9H-purin-2-yl)phenyl)amino)ethan-1-ol]	2.3 ± 0.318	1.56 ± 0.116	–	0.799	–
CC(C)n1cnc2c(NCc3ccc(-c4cccnc4)nc3)nc(-c3ccccc3NCCCO)nc21 [Compound 20b, 3-((2-(6-(([2,3′-Bipyridin]-5-ylmethyl)amino)-9-isopropyl-9H-purin-2-yl)phenyl)amino)propan-1-ol]	11.2 ± 1.12	6.05 ± 0.351	–	3.01	–
CC(C)n1cnc2c(NCc3ccc(-c4cccnc4)nc3)nc(-c3cccc(NCCCO)c3)nc21 [Compound 20c, 3-((3-(6-(([2,3′-Bipyridin]-5-ylmethyl)amino)-9-isopropyl-9H-purin-2-yl)phenyl)amino)propan-1-ol]	0.732 ± 0.177	0.502 ± 0.025	–	0.257	–
CC(C)n1cnc2c(NCc3ccc(-c4cccnc4)nc3)nc(-c3ccc(NCCCO)cc3)nc21 [Compound 20d, 3-((4-(6-(([2,3′-Bipyridin]-5-ylmethyl)amino)-9-isopropyl-9H-purin-2-yl)phenyl)amino)propan-1-ol]	1.09 ± 0.127	0.907 ± 0.068	–	0.499	–
CC(C)n1cnc2c(NCc3ccc(-c4cccnc4)nc3)nc(-c3ccc(F)nc3)nc21 [Compound 21a, N-([2,3′-Bipyridin]-5-ylmethyl)-2-(6-fluoropyridin-3-yl)-9-isopropyl-9H-purin-6-amine]	1.7 ± 0.165	1.33 ± 0.393	–	0.147	–
CC(C)n1cnc2c(NCc3ccc(-c4cccnc4)nc3)nc(-c3ccnc(F)c3)nc21 [Compound 21b, N-([2,3′-Bipyridin]-5-ylmethyl)-2-(2-fluoropyridin-4-yl)-9-isopropyl-9H-purin-6-amine]	1.68 ± 0.267	1.27 ± 0.021	–	0.164	–
c1cncc(-c2ccc(CNc3nc(-c4cccnc4)nc4c3ncn4C3CCOCC3)cn2)c1 [Compound 28c, N-([2,3′-Bipyridin]-5-ylmethyl)-2-(pyridin-3-yl)-9-(tetrahydro-2H-pyran-4-yl)-9H-purin-6-amine]	> 100	44.4 ± 2.46	–	–	–
CC[C@H](CO)Nc1nc(NCc2ccc(-c3ccccn3)cc2)c2ncn(C(C)C)c2n1 [R-CR8 (9), reference compound]	0.101 ± 0.014	0.083 ± 0.011	–	–	–
